The record followed here is patent publication US5302514A, “Maltooligoside derivative, reagent for determining α-amylase activity containing the same as effective ingredient and a process for determining the α-amylase activity using same” (Kikkoman Corporation, priority 1991, dated 1994).

The subject of data set [1] is human α-amylase (P:S=1:1). The data set is described as follows: α-Amylase hydrolysis (increase in absorbance at 400 nm with coupled enzymes). The class given is biochemical. The conditions noted are these: for Increase in absorbance for 2 minutes (corrected by the 0 IU/l of α-amylase activity): substrate solution 3.00 mM, 400 nm, 37° C., pH 7.0; for hydrolysis by α-amylase (in words): as understood from Tables 1 and 2. The procedure: Coupled enzyme solution was prepared by dissolving a commercially available α-glucosidase derived from yeast and a commercially available β-glucosidase derived from almond in a 50 mM phosphate buffer (pH=7.0) containing 40 mM NaCl and 2 mM MgCl2 to a concentration of 117 units/ml and 13 units/ml, respectively. As the commercially available α- and β-glucosidases, those available from Toyobo Co., Ltd. were used.
Standard α-amylase solutions were prepared by dissolving a commercially available human α-amylase (P:S=1:1) in purified water to a concentration of 0, 148, 284, 401 and 525 IU/l, respectively. As the commercially available human α-amylase, Calibzyme.AMY manufactured by International Reagents Corp. was employed. As for the activity of α-amylase, an amount of the enzyme which decomposes 1μ mol of (a commercially available) 2-chloro-4-nitrophenyl β-D-maltopentaoside at 37° C. for one minute was defined as 1 international unit (IU).
The substrate solution (a) was prepared by dissolving 2-chloro-4-nitorphenyl 6^5 -azido-6^5 -deoxy-β-D-maltopentaoside (referred to hereinafter as the substrate of the present invention) obtained in Example 3 in a 50 mM phosphate buffer (pH=7.0) containing 40 mM NaCl and 2 mM MgCl2 to a concentration of 3.00 mM.
The substrate solution (b) was prepared by dissolving 2-chloro-4-nitrophenyl 6^3 -azido-6^3 -deoxy-β-D-maltotrioside (referred to hereinafter as the reference substrate) obtained in the step (1) in a 50 mM phosphate buffer (pH=7.0) containing 40 mM NaCl and 2 mM MgCl2 to a concentration of 3.00 mM.
A coupled enzyme solution was prepared in the same manner as in the step (2) of Example 5.
α-amylase solutions were prepared in the same manner as in the step (3) of Example 5 by dissolving a commercially available human α-amylase (P:S=1:1) in purified water to a concentration of 0, 250 and 500 IU/l, respectively.
The coupled enzyme solution in an amount of 1.0 ml was added with stirring to 250 μl of the α-amylase solution, and the mixture was heated at 37° C. for one minute. Each of the substrate solution in an amount of 2.0 ml was added with stirring to the mixture, and the mixture was heated at 37° C. for 2 minutes before measuring the variation of the absorbance at 400 nm for 2 minutes.
2-chloro-4-nitrophenyl 5^5 -eno-4^5 -O-mesyl-β-D-maltopentaoside (referred to hereinafter as substrate of the present invention) obtained in Example 1 was dissolved in a 50 mM phosphate buffer (pH=7.0) containing 40 mM NaCl and 2 mM MgCl2 to a concentration of 3.00 mM.
2-chloro-4-nitrophenyl 5^3 -eno-4^3 -O-mesyl-β-D-maltotrioside(referred to hereinafter as reference substrate) obtained in the previous step (1) was dissolved in a 50 mM phosphate buffer (pH=7.0) containing 40 mM NaCl an 2 mM MgCl2 to a concentration of 3.00 mM.
α-amylase solutions were prepared in the same manner as in the step (5) of Example 7.
The variations of absorbance were measured in the same manner as in the step (6) of Example 7.

The next data set in a line: Solubility in water. Format: physicochemical. The conditions noted are these: 20 g of substrate added to 100 ml of water. On the procedure:
To 100 ml of water was added 20 g of a substrate, and the dissolution state was observed.

Molecules are shown by their SMILES.

Turning to `[N-]=[N+]=NC[C@H]1O[C@H](O[C@H]2[C@H](O)[C@@H](O)[C@@H](O[C@H]3[C@H](O)[C@@H](O)[C@@H](O[C@H]4[C@H](O)[C@@H](O)[C@@H](O[C@H]5[C@H](O)[C@@H](O)[C@H](Oc6ccc([N+](=O)[O-])cc6Cl)O[C@@H]5CO)O[C@@H]4CO)O[C@@H]3CO)O[C@@H]2CO)[C@H](O)[C@@H](O)[C@@H]1O` [ADG5CNP, 2-chloro-4-nitrophenyl 6^5-azido-6^5-deoxy-β-D-maltopentaoside], the “Increase in absorbance for 2 minutes (corrected by the 0 IU/l of α-amylase activity)” value is 0.058 in data set [1] (Table 1, α-amylase activity 250 IU/l) and 0.118 in data set [1] (Table 1, α-amylase activity 500 IU/l). The “hydrolysis by α-amylase (in words)” value in data set [1] is given as “hydrolyzed satisfactorily”. For the same compound, the Solubility in water result in the data set “Solubility in water” is recorded as “Good”.
For `C=C1O[C@H](O[C@H]2[C@H](O)[C@@H](O)[C@@H](O[C@H]3[C@H](O)[C@@H](O)[C@@H](O[C@H]4[C@H](O)[C@@H](O)[C@@H](O[C@H]5[C@H](O)[C@@H](O)[C@H](Oc6ccc([N+](=O)[O-])cc6Cl)O[C@@H]5CO)O[C@@H]4CO)O[C@@H]3CO)O[C@@H]2CO)[C@H](O)[C@@H](O)[C@@H]1OS(C)(=O)=O` [EMG5CNP, 2-chloro-4-nitrophenyl 5^5-eno-4^5 -O-mesyl-β-D-maltopentaoside], the “Increase in absorbance for 2 minutes (corrected by the 0 IU/l of α-amylase activity)” value in data set [1] (Table 2, α-amylase activity 250 IU/l) is 0.057; in data set [1] (Table 2, α-amylase activity 500 IU/l), 0.116. In data set [1], the “hydrolysis by α-amylase (in words)” value is on record as “hydrolyzed extremely smoothly”. Moreover, in the data set “Solubility in water”, the Solubility in water entry is reported as “Good”.
